Molecular target: T1, WNK2 (Homo sapiens, UniProt Q9Y3S1)
T1 construct: purchased Thermo Fisher Scientific (Life Technologies) SelectScreen
Assay: SelectScreen LanthaScreen
Type: binding
Settings: read-out: % displacement
In short: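 SelectScreen broad panel; activity (Z'LYTE, Adapta) plus binding formats. ATP: Km app for CSF1R Z'LYTE; 10 for CAMK1 Adapta. Readout = % per kinase.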

T1 sequence (Q9Y3S1 whole entry): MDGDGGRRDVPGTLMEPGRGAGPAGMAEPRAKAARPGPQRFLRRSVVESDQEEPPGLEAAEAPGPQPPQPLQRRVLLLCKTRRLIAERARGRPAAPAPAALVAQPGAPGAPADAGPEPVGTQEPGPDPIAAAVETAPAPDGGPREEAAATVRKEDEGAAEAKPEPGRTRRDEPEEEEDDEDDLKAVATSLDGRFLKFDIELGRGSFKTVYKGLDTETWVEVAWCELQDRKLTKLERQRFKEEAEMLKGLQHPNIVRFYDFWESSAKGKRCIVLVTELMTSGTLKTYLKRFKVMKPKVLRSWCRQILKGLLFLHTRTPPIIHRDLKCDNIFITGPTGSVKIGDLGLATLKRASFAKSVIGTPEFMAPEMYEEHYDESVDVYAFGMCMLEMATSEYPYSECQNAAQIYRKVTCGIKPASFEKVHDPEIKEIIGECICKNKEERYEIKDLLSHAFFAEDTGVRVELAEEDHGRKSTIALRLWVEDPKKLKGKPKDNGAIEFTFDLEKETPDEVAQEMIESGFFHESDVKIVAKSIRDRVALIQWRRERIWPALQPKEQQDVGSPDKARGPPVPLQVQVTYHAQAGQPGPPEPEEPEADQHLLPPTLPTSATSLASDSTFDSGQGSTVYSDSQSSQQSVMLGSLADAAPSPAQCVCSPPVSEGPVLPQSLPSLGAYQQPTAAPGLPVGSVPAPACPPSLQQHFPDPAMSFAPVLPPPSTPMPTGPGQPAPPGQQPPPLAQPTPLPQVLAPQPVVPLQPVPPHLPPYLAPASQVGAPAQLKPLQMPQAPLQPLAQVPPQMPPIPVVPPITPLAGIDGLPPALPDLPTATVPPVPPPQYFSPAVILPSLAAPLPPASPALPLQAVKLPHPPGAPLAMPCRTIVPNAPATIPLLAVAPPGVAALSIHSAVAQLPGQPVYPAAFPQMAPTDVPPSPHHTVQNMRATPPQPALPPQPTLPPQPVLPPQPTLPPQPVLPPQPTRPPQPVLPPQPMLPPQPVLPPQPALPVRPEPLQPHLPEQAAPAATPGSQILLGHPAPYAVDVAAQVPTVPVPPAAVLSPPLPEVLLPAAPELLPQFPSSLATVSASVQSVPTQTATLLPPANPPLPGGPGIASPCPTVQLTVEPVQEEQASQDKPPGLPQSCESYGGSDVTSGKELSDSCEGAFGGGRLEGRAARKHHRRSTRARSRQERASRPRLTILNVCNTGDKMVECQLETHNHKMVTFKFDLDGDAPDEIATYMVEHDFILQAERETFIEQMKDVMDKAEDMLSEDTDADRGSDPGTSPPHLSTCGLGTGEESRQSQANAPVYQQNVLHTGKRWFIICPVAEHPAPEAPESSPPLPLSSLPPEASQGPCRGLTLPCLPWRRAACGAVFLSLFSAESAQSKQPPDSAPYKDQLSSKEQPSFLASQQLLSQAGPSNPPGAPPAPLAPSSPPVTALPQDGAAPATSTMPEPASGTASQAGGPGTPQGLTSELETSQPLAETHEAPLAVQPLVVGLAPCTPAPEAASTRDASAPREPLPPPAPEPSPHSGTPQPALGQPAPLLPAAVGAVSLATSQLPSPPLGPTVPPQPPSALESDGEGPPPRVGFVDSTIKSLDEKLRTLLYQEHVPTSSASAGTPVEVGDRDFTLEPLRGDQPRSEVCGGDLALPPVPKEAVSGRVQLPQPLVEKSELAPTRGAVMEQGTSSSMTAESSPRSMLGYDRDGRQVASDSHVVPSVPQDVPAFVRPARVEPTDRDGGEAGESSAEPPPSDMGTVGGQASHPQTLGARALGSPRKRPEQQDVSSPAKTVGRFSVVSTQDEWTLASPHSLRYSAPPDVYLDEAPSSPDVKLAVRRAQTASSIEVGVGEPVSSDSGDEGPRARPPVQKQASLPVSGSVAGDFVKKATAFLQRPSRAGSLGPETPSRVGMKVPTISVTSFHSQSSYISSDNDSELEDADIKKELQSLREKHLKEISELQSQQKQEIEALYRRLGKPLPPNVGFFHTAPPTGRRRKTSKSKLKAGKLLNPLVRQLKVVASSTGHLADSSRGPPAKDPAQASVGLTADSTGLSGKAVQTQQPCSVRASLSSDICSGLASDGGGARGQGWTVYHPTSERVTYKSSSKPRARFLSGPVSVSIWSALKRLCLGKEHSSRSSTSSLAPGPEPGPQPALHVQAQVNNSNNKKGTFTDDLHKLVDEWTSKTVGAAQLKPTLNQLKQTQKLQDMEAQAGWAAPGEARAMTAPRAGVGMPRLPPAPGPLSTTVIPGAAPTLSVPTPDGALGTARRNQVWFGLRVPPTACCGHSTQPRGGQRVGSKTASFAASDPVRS

Q: `CN(C(=O)CN1CCOCC1)c1ccc2sc3c(-c4cccc5c(=O)cc(N6CC7CCC(C6)O7)oc45)cccc3c2c1` [NU5455] was tested. Which inhibition at 1 µM did it give?
A: -2.5%

— article PMC6934184, “Selective DNA-PKcs inhibition extends the therapeutic index of localized radiotherapy and chemotherapy” (The Journal of Clinical Investigation, 2019)
